This note sets out measurements from ChEMBL document CHEMBL3603813, “Quinoline-based antimalarial hybrid compounds” (Bioorg Med Chem, 2015).

The subject of data set [1] is Plasmodium falciparum. As to the kind of experiment: Antiplasmodial activity against CQ-resistant Plasmodium falciparum FCR3. Type of data set: functional, organism-based.
The subject of data set [2] is Plasmodium falciparum. As to the kind of experiment: Antiplasmodial activity against CQ-sensitive Plasmodium falciparum D10. It is filed as functional, organism-based.
The test system of data set [3] is Plasmodium falciparum. Briefly: Antiplasmodial activity against CQ-resistant Plasmodium falciparum K1. It is filed as functional, organism-based.
Data set [4] has as its system Plasmodium berghei. Briefly: Antimalarial activity against Plasmodium berghei infected in mouse assessed as reduction in parasitemia at 44 to 46 mg/kg, po. It is filed as functional.
Data set [5] relates to Plasmodium berghei. Briefly: Antimalarial activity against Plasmodium berghei infected in human HuH7 cells assessed as inhibition of liver cell infection. The note with it: Huh-7, Liver. It is filed as functional, organism-based.
In data set [6] the test system is Plasmodium falciparum. Briefly: Antiplasmodial activity against CQ-resistant Plasmodium falciparum W2 assessed as inhibition of parasite growth. It is filed as functional, organism-based.
In data set [7] the test system is Plasmodium berghei. Briefly: Antimalarial activity against Plasmodium berghei infected in mouse assessed as inhibition of parasite multiplication at 5 mg/kg/day administered for 4 days measured after 7 days. It is filed as functional.
The subject of data set [8] is Plasmodium falciparum. Briefly: Antiplasmodial activity against CQ-resistant Plasmodium falciparum FcM29. It is filed as functional.
Data set [9] has as its system Plasmodium falciparum. Briefly: Antiplasmodial activity against CQ-sensitive Plasmodium falciparum D6. Type of data set: functional.
Data set [10] relates to Plasmodium falciparum. As to the kind of experiment: Antiplasmodial activity against CQ-resistant Plasmodium falciparum FcB1. It is filed as functional.
A short description of data set [11]: Inhibition of beta-hematin formation. Type of data set: physicochemical.
In data set [12] the test system is Plasmodium falciparum. Briefly: Antiplasmodial activity against CQ-resistant Plasmodium falciparum Dd2. Type of data set: functional, organism-based.

pIC50: −log10 of the molar value.

Turning to `O=C(CS(=O)(=O)N1CCN(c2ccnc3cc(Cl)ccc23)CC1)Nc1ccccc1`, in data set [1], the negative logarithm of the IC50 (pIC50) is 5.92.

With `C[C@H]1[C@@H](OCc2cccc(C(=O)N(CCCCNc3ccnc4cc(Cl)ccc34)CC(=O)NC3CCCCC3)c2)O[C@@H]2O[C@@]3(C)CC[C@H]4[C@H](C)CC[C@@H]1[C@@]24OO3`, the pIC50 in data set [2] was 7.59; in [3], 7.72. For the molecule `C[C@H]1[C@@H](OCc2ccc(C(=O)N(CCNc3ccnc4cc(Cl)ccc34)CC(=O)NC3CCCCC3)cc2)O[C@@H]2O[C@@]3(C)CC[C@H]4[C@H](C)CC[C@@H]1[C@@]24OO3`, the negative logarithm of the IC50 (pIC50) was 7.59 in data set [2] and 7.72 in [3]. Regarding `C[C@H]1[C@@H](OCc2ccc(C(=O)N(CCNc3ccnc4cc(Cl)ccc34)CC(=O)NC(C)(C)C)cc2)O[C@@H]2O[C@@]3(C)CC[C@H]4[C@H](C)CC[C@@H]1[C@@]24OO3`, the pIC50 was 7.59 in [2] and 7.72 in [3]. `Clc1ccc2c(NCCCN3CCC(NC(c4ccccn4)c4ccccn4)CC3)ccnc2c1` [DM-1157]: the “inhibition (INH)” value in [4] is recorded as above 99.9%. The same measure, in the same setting: under `Clc1ccc2c(NCCN3CCC(NC(c4ccccn4)c4ccccn4)CC3)ccnc2c1` stands above 99.9%.

For the molecule `COc1cc(NC(C)CCCNC(=O)CC2CCC3(CC2)OOC2(OO3)C3CC4CC(C3)CC2C4)c2ncccc2c1` (stereo unspecified), the pIC50 in data set [5] is 6.48; in [6] it was 7.68.

For the molecule `Clc1ccc2c(Sc3ncnc4[nH]cnc34)ccnc2c1`, in data set [7], the inhibition in vivo at 5 mg/kg/day worked out at 70%. Turning to `CCN(CC)CCCC(C)Nc1ccnc2cc(Cl)ccc12` (stereo unspecified) [CHLOROQUINE], the Activity in [8] was 735 nM; in data set [9], 7 nM; in data set [10], 145 nM; in data set [12] it was 102 nM. In addition, the “inhibition (INH)” value in data set [11] is 94%. `O=[N+]([O-])c1ccccc1S(=O)(=O)N1CCN(c2ccnc3cc(Cl)ccc23)CC1` had a pIC50 in data set [1] of 5.92. Turning to `C[C@@H]1CC[C@H]2[C@@H](C)C(=O)O[C@@H]3O[C@@]4(C)CC[C@@H]1[C@]32OO4` [ARTEMISININ], the Activity is 18 nM in data set [8] and 10 nM in data set [10].

For `CCCS(=O)(=O)N1CCN(c2ccnc3cc(Cl)ccc23)CC1`, the pIC50 in data set [1] was 5.92.
